Source: PMC5218821 (Journal of ocular biology, 2016)

Biological target: T1, soluble epoxide hydrolase (sEH) (Oryctolagus cuniculus, UniProt A0A5F9CRP6)
T1 construct: gene ADAM2
T1 sequence (A0A5F9CRP6 1-555): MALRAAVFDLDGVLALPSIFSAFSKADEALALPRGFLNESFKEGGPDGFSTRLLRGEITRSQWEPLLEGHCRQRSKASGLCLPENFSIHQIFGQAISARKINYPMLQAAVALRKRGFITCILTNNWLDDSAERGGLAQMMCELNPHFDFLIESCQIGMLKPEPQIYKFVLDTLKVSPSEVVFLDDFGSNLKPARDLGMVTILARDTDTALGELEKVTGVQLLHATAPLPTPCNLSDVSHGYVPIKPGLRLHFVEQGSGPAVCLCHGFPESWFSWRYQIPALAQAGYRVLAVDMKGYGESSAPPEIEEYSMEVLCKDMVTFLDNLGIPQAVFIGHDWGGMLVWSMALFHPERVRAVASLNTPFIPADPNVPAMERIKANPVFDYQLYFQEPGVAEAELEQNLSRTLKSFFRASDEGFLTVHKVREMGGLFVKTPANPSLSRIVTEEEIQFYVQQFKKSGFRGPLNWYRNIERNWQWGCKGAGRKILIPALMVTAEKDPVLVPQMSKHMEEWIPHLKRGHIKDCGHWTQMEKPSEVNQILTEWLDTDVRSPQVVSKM
Assay: biochemical

## CS(=O)(=O)N1CCC(NC(=O)Nc2ccc(OC(F)(F)F)cc2)CC1 [UC1709, TUPS]
  IC50: 88 nM
